27 compounds from patent US10703765B2 (priority 2014, dated 2020) can be followed below.

pKi: −log10 of the molar value. Structures can show the parent of a compound that is named as a salt.

In one assay the target is human σ1 receptor (Homo sapiens, UniProt Q99720). Put plainly: biochemical. In kind it is binding. On the set-up: μ and σ1 dual binding: key to the marks not given beside the values.
human σ1 receptor, sequence (Q99720 whole entry): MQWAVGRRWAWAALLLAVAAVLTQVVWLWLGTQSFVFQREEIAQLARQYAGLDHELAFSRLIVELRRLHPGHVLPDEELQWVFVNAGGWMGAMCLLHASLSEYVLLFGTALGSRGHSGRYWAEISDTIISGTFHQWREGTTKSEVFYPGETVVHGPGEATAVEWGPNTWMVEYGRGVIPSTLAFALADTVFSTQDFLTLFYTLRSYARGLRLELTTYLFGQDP
Settings: not given
For the compound `Cl.O=C1COC2(CCN(Cc3ccccc3)CC2)CN1c1ccccc1` [Example 3, 9-benzyl-4-phenyl-1-oxa-4,9-diazaspiro[5.5]undecan-3-one hydrochloride], the “μ and σ1 dual binding” value is given as “++”.
`CC1OC2(CCN(CCc3ccccc3)CC2)CN(c2ccn(C)n2)C1=O.Cl` (stereo not drawn) [Example 20, 2-methyl-4-(1-methyl-1H-pyrazol-3-yl)-9-phenethyl-1-oxa-4,9-diazaspiro[5.5]undecan-3-one hydrochloride]: the “μ and σ1 dual binding” value is recorded as “++”.
For `CC(C)C1OC2(CCN(CCc3ccccc3O)CC2)CN(c2ccccc2F)C1=O` (stereo not drawn) [Example 297, 4-(2-fluorophenyl)-9-(2-hydroxyphenethyl)-2-isopropyl-1-oxa-4,9-diazaspiro[5.5]undecan-3-one], the pKi is > 7.00.
On to `CC1OC2(CCN(CCc3ccccc3)CC2)CN(c2nn(C)c3ccccc23)C1=O.Cl` (stereo not drawn) [Example 200, 2-methyl-4-(1-methyl-1H-indazol-3-yl)-9-phenethyl-1-oxa-4,9-diazaspiro[5.5]undecan-3-one hydrochloride], for which the “μ and σ1 dual binding” value is “++”.
In the case of `Cl.O=C1N(CCCO)CC2(CCN(CCc3ccccc3)CC2)OC12CC2` [Example 279, 12-(3-hydroxypropyl)-8-phenethyl-4-oxa-8,12-diazadispiro[2.1.5.3]tridecan-13-one hydrochloride], the “μ and σ1 dual binding” value is “++”.
Take `CC1OC2(CCN(CCc3ccnc(C(F)(F)F)c3)CC2)CN(c2ccccc2)C1=O.Cl` (stereo not drawn) [Example 40, 2-methyl-4-phenyl-9-(2-(2-(trifluoromethyl)pyridin-4-yl)ethyl)-1-oxa-4,9-diazaspiro[5.5]undecan-3-one hydrochloride]: the “μ and σ1 dual binding” value is on record as “++”.
`CC1OC2(CCN(CCc3cccs3)CC2)CN(c2ccccc2)C1=O` (stereo not drawn) [Example 53, 2-methyl-4-phenyl-9-(2-(thiophen-2-yl)ethyl)-1-oxa-4,9-diazaspiro[5.5]undecan-3-one]: the pKi is > 7.00.
For `Nc1nc(CCN2CCC3(CC2)CN(c2ccccc2)C(=O)C2(CC2)O3)cs1` [Example 307, 8-[2-(2-aminothiazol-4-yl)ethyl]-12-phenyl-4-oxa-8,12-diazadispiro[2.1.5.3]tridecan-13-one dihydrochloride], the pKi is > 6.30.

The assay is the same for the next values; noted with them: combined class from Ki-σ1 (human σ1 receptor, A1) and Ki-μ (human μ-opioid receptor, A2) radioligand binding.
For the compound `O=C1C(CO)OC2(CCN(CCc3ccccc3O)CC2)CN1c1ccccc1F` (stereo not drawn) [Example 301, 4-(2-fluorophenyl)-2-(hydroxymethyl)-9-(2-hydroxyphenethyl)-1-oxa-4,9-diazaspiro[5.5]undecan-3-one], the “μ and σ1 dual binding” value was “++”.
As for `O=C1COC2(CCN(CCc3ccccn3)CC2)CN1Cc1ccccn1` [Example 84, 9-(2-(pyridin-2-yl)ethyl)-4-(pyridin-2-ylmethyl)-1-oxa-4,9-diazaspiro[5.5]undecan-3-one], the “μ and σ1 dual binding” value is listed as “++”.
Consider `COC(=O)CCN1CCC2(CC1)CN(Cc1ccccc1)C(=O)C1(CC1)O2` [Example 346, methyl 3-(12-benzyl-13-oxo-4-oxa-8,12-diazadispiro[2.1.5.3]tridecan-8-yl)propanoate], for which the “μ and σ1 dual binding” value is recorded as “++”.
With `COCC1OC2(CCN(CCc3ccccc3OC)CC2)CN(c2ccccc2F)C1=O` (stereo not drawn) [Example 135, 4-(2-fluorophenyl)-2-(methoxymethyl)-9-(2-methoxyphenethyl)-1-oxa-4,9-diazaspiro[5.5]undecan-3-one], the “μ and σ1 dual binding” value was “++”.
With `CC1OC2(CCN(CCn3cccn3)CC2)CN(c2ccccc2)C1=O` (stereo not drawn) [Example 56], the “μ and σ1 dual binding” value was “++”.

The same assay, now with this note: read-out: μ and σ1 dual binding.
`CC1OC2(CCN(CC(=O)Nc3ccccc3)CC2)CN(c2ccccc2)C1=O` (stereo not drawn) [Example 71, 2-(2-methyl-3-oxo-4-phenyl-1-oxa-4,9-diazaspiro[5.5]undecan-9-yl)-N-phenylacetamide]: the pKi is < 6.30.
In the case of `CC1OC2(CCN(CCc3ccccc3)CC2)CN(c2ccccc2)C1=O` (stereo not drawn) [Example 9, 2-methyl-9-phenethyl-4-phenyl-1-oxa-4,9-diazaspiro[5.5]undecan-3-one], the pKi is > 7.00.
The same measure, in the same setting: the value for `CC(C)(C)OC(=O)Nc1nc(CCN2CCC3(CC2)CN(Cc2ccc(C(F)(F)F)cn2)C(=O)CO3)cs1` [Example 106, tert-butyl (4-(2-(3-oxo-4-((5-(trifluoromethyl)pyridin-2-yl)methyl)-1-oxa-4,9-diazaspiro[5.5]undecan-9-yl)ethyl)thiazol-2-yl)carbamate] was < 6.30; that for `CC1OC2(CCN(CCc3ccc([N+](=O)[O-])cc3)CC2)CN(c2ccccc2)C1=O` (stereo not drawn) [Example 66, 2-methyl-9-(4-nitrophenethyl)-4-phenyl-1-oxa-4,9-diazaspiro[5.5]undecan-3-one] was < 6.30; that for `CC(=O)Nc1cccc(CCN2CCC3(CC2)CN(c2ccccc2)C(=O)[C@@H](C)O3)c1` [Example 244b, (R)-N-(3-(2-(2-methyl-3-oxo-4-phenyl-1-oxa-4,9-diazaspiro[5.5]undecan-9-yl)ethyl)phenyl)acetamide hydrochloride] was > 7.00.
For the compound `C[C@@H]1OC2(CCN(CCc3ccccc3F)CC2)CN(c2ncccc2C(F)(F)F)C1=O` [Example 222b, (S)-9-(2-fluorophenethyl)-2-methyl-4-(3-(trifluoromethyl)pyridin-2-yl)-1-oxa-4,9-diazaspiro[5.5]undecan-3-one], the pKi was < 6.30.
For the compound `CNC(=O)c1ccc(CCN2CCC3(CC2)CN(c2ccccc2)C(=O)C(C)O3)cc1` (stereo not drawn) [Example 274, N-methyl-4-(2-(2-methyl-3-oxo-4-phenyl-1-oxa-4,9-diazaspiro[5.5]undecan-9-yl)ethyl)benzamide hydrochloride], the pKi is > 6.30.
The same measure, in the same setting: the value for `CC1OC2(CCN(CCc3cccc(O)c3)CC2)CN(c2ccccc2F)C1=O` (stereo not drawn) [Example 298, 4-(2-fluorophenyl)-9-(3-hydroxyphenethyl)-2-methyl-1-oxa-4,9-diazaspiro[5.5]undecan-3-one] was > 7.00; that for `CC(=O)Nc1cc(CCN2CCC3(CC2)CN(c2ccccc2)C(=O)C(C)O3)ccn1` (stereo not drawn) [Example 255, N-(4-(2-(2-methyl-3-oxo-4-phenyl-1-oxa-4,9-diazaspiro[5.5]undecan-9-yl)ethyl)pyridin-2-yl)acetamide hydrochloride] was < 6.30; that for `CC1OC2(CCN(CCc3csc(NC(=O)OC(C)(C)C)n3)CC2)CN(c2ccccc2F)C1=O` (stereo not drawn) [Example 140, tert-butyl (4-(2-(4-(2-fluorophenyl)-2-methyl-3-oxo-1-oxa-4,9-diazaspiro[5.5]undecan-9-yl)ethyl)thiazol-2-yl)carbamate] was < 6.30.
For the compound `CCOC(=O)c1cccc(CCN2CCC3(CC2)CN(c2ccccc2F)C(=O)C(C)O3)c1` (stereo not drawn) [Example 143, ethyl 3-(2-(4-(2-fluorophenyl)-2-methyl-3-oxo-1-oxa-4,9-diazaspiro[5.5]undecan-9-yl)ethyl)benzoate], the pKi is < 6.30.
Same read-out and setting: then `C=C1OC2(CCN(CCc3ccccc3)CC2)CN(c2ccccc2F)C1=O` [Example 22, 4-(2-fluorophenyl)-2-methylene-9-phenethyl-1-oxa-4,9-diazaspiro[5.5]undecan-3-one], with < 6.30; and `CC1OC2(CCN(CCc3ccccc3)CC2)CN(c2cncc(F)c2)C1=O` (stereo not drawn) [Example 216, 4-(5-fluoropyridin-3-yl)-2-methyl-9-phenethyl-1-oxa-4,9-diazaspiro[5.5]undecan-3-one hydrochloride], with > 6.30.
On to `c1ccc(CCN2CCC3(CC2)CN(c2ccccc2)CCO3)cc1` [Example 317, 9-phenethyl-4-phenyl-1-oxa-4,9-diazaspiro[5.5]undecane], for which the pKi was > 6.30.
